According to US8603527B2, “Pharmaceutical formulations of a substituted diaminopurine” (Signal Pharmaceuticals, LLC, priority 2010, dated 2013):

System: healthy volunteers
Assay: Safety and tolerability of ascending multiple oral doses in healthy volunteers
Type: in vivo, human
Experimental: Study Design: This study was a randomized, double-blind, placebo-controlled, ascending-dose trial to evaluate the safety, tolerability and pharmacokinetics (PK) of multiple oral doses of Compound I. Subjects were enrolled into 1 of the 4 cohorts, 10 subjects per cohort (active:placebo=8:2). Subjects received a multiple oral dose of 25, 50, 100, or 200 mg unformulated Compound I in a capsule, or matching placebo, once daily (QD) for 14 days.
Assessments: Safety and tolerability were assessed by adverse event (AE) monitoring, clinical laboratory testing, vital sign measurement, 12-lead ECG measurement, concomitant medication assessment, and physical examination. Blood and urine samples were collected to assess the PK profile of Compound I and the S-cis isomer of Compound I. Blood samples (˜5 mL) for plasma PK analysis were collected in K2-EDTA vacutainer tubes to yield approximately 2 mL of plasma at each of the following time points: (i) Day 1: before dosing, and 0.25, 0.5, 1, 1.5, 2, 2.5, 3, 4, 6, 8, 10, 12, 16, and 24 hours after dosing; (ii) Day 3 to Day 9: before dosing; (iii) Day 10: before dosing, and 0.25, 0.5, 1, 1.5, 2, 2.5, 3, 4, 6, 8, 10, 12, and 16 hours after dosing; (iv) Day 11 to Day 13: before dosing; (v) Day 14: before dosing, and 0.25, 0.5, 1, 1.5, 2, 2.5, 3, 4, 6, 8, 10, 12, 16, 24, 48, 72, 96, 120, 144, and 168 hours after dosing. Urine samples for the PK analysis were collected as a single block at: (i) Day 1: before dosing (spot collection), 0 to 8, 8 to 16, and 16 to 24 hours after dosing; and (ii) Day 14: 0 to 8, 8 to 16, and 16 to 24 hours after dosing. Both plasma and urine concentrations of Compound I and its S-cis isomer were measured using validated liquid chromatography-tandem mass spectrometry (LC/MS/MS).
Data Analysis: Safety data were summarized using descriptive statistics by treatment. PK parameters for Compound I and its S-cis isomer were calculated using non-compartmental analysis using WinNonlin (Version 5.0.1 or greater; Pharsight Corporation, Mountain View, Calif.). Dose proportionality and dose independence were evaluated by visual inspection. Intra-subject variability was assessed using an ANOVA model using data from Days 10 and 14.

## O[C@H]1CC[C@H](Nc2ncc3nc(Nc4c(F)cc(F)cc4F)n([C@H]4CCOC4)c3n2)CC1 [Compound I, 4-((9-((3S)-tetrahydro-3-furanyl)-8-((2,4,6-trifluorophenyl)amino)-9H-purin-2-yl)amino)-trans-cyclohexanol]
25 mg QD for 14 days (N = 8)
  Dermatitis contact, number of subjects reporting TEAE: 0 n (%)
  Dizziness, number of subjects reporting TEAE: 0 n (%)
  Flatulence, number of subjects reporting TEAE: 0 n (%)
  Headache, E = number of TEAE: 1
  Headache, number of subjects reporting TEAE: 1 (12.5) n (%)
  Nasal congestion, E = number of TEAE: 1
  Nasal congestion, number of subjects reporting TEAE: 1 (12.5) n (%)
  Nausea, E = number of TEAE: 1
  Nausea, number of subjects reporting TEAE: 1 (12.5) n (%)
  Pharyngolaryngeal pain, number of subjects reporting TEAE: 0 n (%)
  Rhinitis, number of subjects reporting TEAE: 0 n (%)
  Total TEAEs, E = number of TEAE: 6
  Total TEAEs, number of subjects reporting TEAE: 3 (37.5) n (%)
50 mg QD for 14 days (N = 8)
  Dermatitis contact, E = number of TEAE: 1
  Dermatitis contact, number of subjects reporting TEAE: 1 (12.5) n (%)
  Dizziness, number of subjects reporting TEAE: 0 n (%)
  Flatulence, E = number of TEAE: 4
  Flatulence, number of subjects reporting TEAE: 2 (25.0) n (%)
  Headache, E = number of TEAE: 2
  Headache, number of subjects reporting TEAE: 2 (25.0) n (%)
  Nasal congestion, number of subjects reporting TEAE: 0 n (%)
  Nausea, number of subjects reporting TEAE: 0 n (%)
  Pharyngolaryngeal pain, number of subjects reporting TEAE: 0 n (%)
  Rhinitis, E = number of TEAE: 1
  Rhinitis, number of subjects reporting TEAE: 1 (12.5) n (%)
  Total TEAEs, E = number of TEAE: 20
  Total TEAEs, number of subjects reporting TEAE: 6 (75.0) n (%)
100 mg QD for 14 days (N = 8)
  Dermatitis contact, number of subjects reporting TEAE: 0 n (%)
  Dizziness, E = number of TEAE: 2
  Dizziness, number of subjects reporting TEAE: 2 (25.0) n (%)
  Flatulence, number of subjects reporting TEAE: 0 n (%)
  Headache, E = number of TEAE: 3
  Headache, number of subjects reporting TEAE: 3 (37.5) n (%)
  Nasal congestion, number of subjects reporting TEAE: 0 n (%)
  Nausea, number of subjects reporting TEAE: 0 n (%)
  Pharyngolaryngeal pain, E = number of TEAE: 1
  Pharyngolaryngeal pain, number of subjects reporting TEAE: 1 (12.5) n (%)
  Rhinitis, E = number of TEAE: 1
  Rhinitis, number of subjects reporting TEAE: 1 (12.5) n (%)
  Total TEAEs, E = number of TEAE: 10
  Total TEAEs, number of subjects reporting TEAE: 4 (50.0) n (%)
200 mg QD for 14 days (N = 8)
  Dermatitis contact, E = number of TEAE: 1
  Dermatitis contact, number of subjects reporting TEAE: 1 (12.5) n (%)
  Dizziness, E = number of TEAE: 1
  Dizziness, number of subjects reporting TEAE: 1 (12.5) n (%)
  Flatulence, number of subjects reporting TEAE: 0 n (%)
  Headache, number of subjects reporting TEAE: 0 n (%)
  Nasal congestion, E = number of TEAE: 1
  Nasal congestion, number of subjects reporting TEAE: 1 (12.5) n (%)
  Nausea, E = number of TEAE: 3
  Nausea, number of subjects reporting TEAE: 1 (12.5) n (%)
  Pharyngolaryngeal pain, E = number of TEAE: 1
  Pharyngolaryngeal pain, number of subjects reporting TEAE: 1 (12.5) n (%)
  Rhinitis, number of subjects reporting TEAE: 0 n (%)
  Total TEAEs, E = number of TEAE: 15
  Total TEAEs, number of subjects reporting TEAE: 3 (37.5) n (%)
25-200 mg QD for 14 days
  serious or severe TEAE: no serious or severe TEAE was reported
active, 25-200 mg QD for 14 days
  subjects reporting treatment-emergent adverse events: 16/32
Doses up to 200 mg QD for 14 days
  tolerability: well tolerated
